Assay results: paper PMC11472310, “Distinctive Immune Signatures Driven by Structural Alterations in Desmuramylpeptide NOD2 Agonists” (Journal of Medicinal Chemistry, 2024)
Read-outs that look alike come from different tables or passages of the source.

Target: T1, hNOD2 (Homo sapiens, UniProt Q9HC29)
T1 construct: host or cells: HEK-Blue NOD2 cells (HEK293)
Experiment: HEK-Blue NOD2 cell line reporter assay (NF-κB-inducible SEAP)
Format: cell-based
Procedure: To assess the NOD2 agonistic potential of the synthesized desmuramylpeptides at a cellular level, we employed the HEK-Blue NOD2 cell line reporter assay, a validated and commercially available method. All synthesized compounds were evaluated for their dose-dependent activities to establish their EC50 values.
The HEK-Blue NOD1 and NOD2 cell line reporter assay was generated from HEK293 cells through cotransfection of the hNOD1 or hNOD2 gene, respectively, along with an NF-κB-inducible secreted embryonic alkaline phosphatase (SEAP) reporter gene. Upon activation of NOD1 or NOD2, NF-κB triggers the production of SEAP, which can be quantitatively measured colorimetrically. […] After 18 h of incubation at 37 °C with 5% CO2, SEAP activity was measured spectrophotometrically by absorbance at 630 nm (BioTek Synergy microplate reader; Winooski, VT, USA). EC50 values were determined using Prism software (version 9; GraphPad Software, CA, USA). Each experiment was conducted in duplicate and repeated in at least two independent biological replicates.

[1] = HEK-Blue NOD2 cells, 18 h, NF-κB transcriptional activity (SEAP), read-out: EC50 (nM), NOD2 agonistic activity

T1 sequence (Q9HC29 whole entry): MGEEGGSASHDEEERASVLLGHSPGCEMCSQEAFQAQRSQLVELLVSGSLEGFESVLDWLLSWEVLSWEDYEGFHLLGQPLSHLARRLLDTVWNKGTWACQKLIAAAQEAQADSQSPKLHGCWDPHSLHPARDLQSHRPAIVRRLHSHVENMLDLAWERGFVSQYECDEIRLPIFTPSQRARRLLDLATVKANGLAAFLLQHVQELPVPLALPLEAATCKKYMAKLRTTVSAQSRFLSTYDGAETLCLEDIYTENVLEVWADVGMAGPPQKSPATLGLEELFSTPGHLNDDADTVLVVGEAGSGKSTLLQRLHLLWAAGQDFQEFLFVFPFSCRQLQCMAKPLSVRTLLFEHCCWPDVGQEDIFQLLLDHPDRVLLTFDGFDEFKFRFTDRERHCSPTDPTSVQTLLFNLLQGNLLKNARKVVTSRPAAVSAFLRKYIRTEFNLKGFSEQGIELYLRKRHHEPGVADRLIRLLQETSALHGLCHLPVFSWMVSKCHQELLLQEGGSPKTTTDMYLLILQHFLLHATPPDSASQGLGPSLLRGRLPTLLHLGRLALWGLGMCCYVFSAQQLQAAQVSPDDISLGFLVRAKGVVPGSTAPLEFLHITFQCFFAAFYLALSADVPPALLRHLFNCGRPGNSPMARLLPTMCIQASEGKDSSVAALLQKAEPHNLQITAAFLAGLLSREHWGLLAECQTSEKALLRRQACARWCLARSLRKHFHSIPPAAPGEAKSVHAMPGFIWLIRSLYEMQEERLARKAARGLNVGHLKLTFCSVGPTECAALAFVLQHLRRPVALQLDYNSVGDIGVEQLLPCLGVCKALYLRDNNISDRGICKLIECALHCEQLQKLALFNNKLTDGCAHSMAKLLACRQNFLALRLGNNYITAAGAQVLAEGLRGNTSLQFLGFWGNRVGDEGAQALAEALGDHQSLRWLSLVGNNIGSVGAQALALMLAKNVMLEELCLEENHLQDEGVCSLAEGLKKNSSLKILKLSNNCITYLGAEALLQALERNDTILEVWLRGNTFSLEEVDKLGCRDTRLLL

Row | Compound | EC50 [1] [nM] | also measured
1 | CCCCCC(=O)Oc1ccc(/C=C/C(=O)NCC(=O)N[C@H](C(=O)N[C@H](CCC(=O)OCC)C(=O)OCC)C(C)C)cc1OC [Compound 4, Diethyl ((E)-3-(4-(Hexanoyloxy)-3-methoxyphenyl)acryloyl)glycyl-L-valyl-D-glutamate] | 20.2 ± 1.2 | 
2 | CCCCCCCC(=O)Oc1ccc(/C=C/C(=O)NCC(=O)N[C@H](C(=O)N[C@H](CCC(=O)OCC)C(=O)OCC)C(C)C)cc1OC [Compound 5, Diethyl ((E)-3-(3-Methoxy-4-(octanoyloxy)phenyl)acryloyl)glycyl-L-valyl-D-glutamate] | 25.5 ± 2.2 | 
3 | CCCCCCCCC(=O)Oc1ccc(/C=C/C(=O)NCC(=O)N[C@H](C(=O)N[C@H](CCC(=O)OCC)C(=O)OCC)C(C)C)cc1OC [Compound 6] | 24.8 ± 2.3 | 
4 | CCCCCCCCCC(=O)Oc1ccc(/C=C/C(=O)NCC(=O)N[C@H](C(=O)N[C@H](CCC(=O)OCC)C(=O)OCC)C(C)C)cc1OC [Compound 7, Diethyl ((E)-3-(4-(Decanoyloxy)-3-methoxyphenyl)acryloyl)glycyl-L-valyl-D-glutamate] | 30.6 ± 5.5 | 
5 | CCCCCCCCCCCCCC(=O)Oc1ccc(/C=C/C(=O)NCC(=O)N[C@H](C(=O)N[C@H](CCC(=O)OCC)C(=O)OCC)C(C)C)cc1OC [Compound 8, Diethyl ((E)-3-(3-Methoxy-4-(tetradecanoyloxy)phenyl)acryloyl)glycyl-L-valyl-D-glutamate] | 69.5 ± 5.1 | 
6 | CCCCCCCCCCCCCCCCCC(=O)Oc1ccc(/C=C/C(=O)NCC(=O)N[C@H](C(=O)N[C@H](CCC(=O)OCC)C(=O)OCC)C(C)C)cc1OC [Compound 10] | 7200 ± 2640 | EC50 (HEK-Blue NOD2 cells, 18 h, read-out: EC50, NOD2 agonistic activity (text)): 7200 nM
7 | CCCCCC(C)C(=O)Oc1ccc(/C=C/C(=O)NCC(=O)N[C@H](C(=O)N[C@H](CCC(=O)OCC)C(=O)OCC)C(C)C)cc1OC (stereo partly drawn) [Compound 11, Diethyl ((E)-3-(3-Methoxy-4-((2-methylheptanoyl)oxy)phenyl)acryloyl)glycyl-L-valyl-D-glutamate] | 11.7 ± 2.8 | 
8 | CCCCC(CC)C(=O)Oc1ccc(/C=C/C(=O)NCC(=O)N[C@H](C(=O)N[C@H](CCC(=O)OCC)C(=O)OCC)C(C)C)cc1OC (stereo partly drawn) [Compound 12, Diethyl ((E)-3-(4-((2-ethylhexanoyl)oxy)-3-methoxyphenyl)acryloyl)glycyl-L-valyl-D-glutamate] | 21.6 ± 6.5 | 
9 | CCCCCCC(CC)C(=O)Oc1ccc(/C=C/C(=O)NCC(=O)N[C@H](C(=O)N[C@H](CCC(=O)OCC)C(=O)OCC)C(C)C)cc1OC (stereo partly drawn) [Compound 13, Diethyl ((E)-3-(4-((2-Ethyloctanoyl)oxy)-3-methoxyphenyl)acryloyl)glycyl-L-valyl-D-glutamate] | 9.7 | EC50 (supplementary SMILES csv, read-out: HEK-blue hNOD2 EC50): 9.7 nM
10 | CCCCCC(CCC)C(=O)Oc1ccc(/C=C/C(=O)NCC(=O)N[C@H](C(=O)N[C@H](CCC(=O)OCC)C(=O)OCC)C(C)C)cc1OC (stereo partly drawn) [Compound 14, Diethyl ((E)-3-(3-Methoxy-4-((2-propylheptanoyl)oxy)phenyl)acryloyl)glycyl-L-valyl-D-glutamate] | 19.4 ± 3.6 | 
11 | CCCCC(CCCC)C(=O)Oc1ccc(/C=C/C(=O)NCC(=O)N[C@H](C(=O)N[C@H](CCC(=O)OCC)C(=O)OCC)C(C)C)cc1OC [Compound 15, Diethyl ((E)-3-(4-((2-Butylhexanoyl)oxy)-3-methoxyphenyl)acryloyl)glycyl-L-valyl-D-glutamate] | 22.4 ± 5.9 | 
12 | CCOC(=O)CC[C@@H](NC(=O)[C@@H](NC(=O)CNC(=O)/C=C/c1ccc(OC(=O)CCCC2CCCCC2)c(OC)c1)C(C)C)C(=O)OCC [Compound 16, Diethyl ((E)-3-(4-((4-Cyclohexylbutanoyl)oxy)-3-methoxyphenyl)acryloyl)glycyl-L-valyl-D-glutamate] | 25.8 ± 3.3 | 
13 | CCCCCC(CCCCC)C(=O)Oc1ccc(/C=C/C(=O)NCC(=O)N[C@H](C(=O)N[C@H](CCC(=O)OCC)C(=O)OCC)C(C)C)cc1OC [Compound 17, Diethyl ((E)-3-(3-Methoxy-4-((2-pentylheptanoyl)oxy)phenyl)acryloyl)glycyl-L-valyl-D-glutamate] | 88.6 ± 10.5 | drop of activity compared to 2 (EC50 ratio versus 2 (lauroyl)): 9 factor
14 | CCCCCCCC/C=C\CCCCCCCC(=O)Oc1ccc(/C=C/C(=O)NCC(=O)N[C@H](C(=O)N[C@H](CCC(=O)OCC)C(=O)OCC)C(C)C)cc1OC [Compound 18, Diethyl ((E)-3-(3-Methoxy-4-(oleoyloxy)phenyl)acryloyl)glycyl-L-valyl-D-glutamate] | 422 ± 120 | increase in potency compared to saturated counterpart 10 (EC50 ratio versus 10 (stearoyl)): 17 fold
15 | CCCCC/C=C\C/C=C\CCCCCCCC(=O)Oc1ccc(/C=C/C(=O)NCC(=O)N[C@H](C(=O)N[C@H](CCC(=O)OCC)C(=O)OCC)C(C)C)cc1OC [Compound 19, Diethyl ((E)-3-(3-Methoxy-4-(((9Z,12Z)-octadeca-9,12-dienoyl)oxy)phenyl)acryloyl)glycyl-L-valyl-D-glutamate] | 198 ± 39.1 | 
16 | CC/C=C\C/C=C\C/C=C\CCCCCCCC(=O)Oc1ccc(/C=C/C(=O)NCC(=O)N[C@H](C(=O)N[C@H](CCC(=O)OCC)C(=O)OCC)C(C)C)cc1OC [Compound 20, Diethyl ((E)-3-(3-Methoxy-4-(((9Z,12Z,15Z)-octadeca-9,12,15-trienoyl)oxy)phenyl)acryloyl)glycyl-L-valyl-D-glutamate] | 135 ± 28.9 | 
17 | CCCCC/C=C\C/C=C\C/C=C\CCCCC(=O)Oc1ccc(/C=C/C(=O)NCC(=O)N[C@H](C(=O)N[C@H](CCC(=O)OCC)C(=O)OCC)C(C)C)cc1OC [Compound 21, Diethyl ((E)-3-(3-Methoxy-4-(((6Z,9Z,12Z)-octadeca-6,9,12-trienoyl)oxy)phenyl)acryloyl)glycyl-L-valyl-D-glutamate] | 205 ± 28.6 | 
18 | CC/C=C\C/C=C\C/C=C\C/C=C\C/C=C\C/C=C\CCC(=O)Oc1ccc(/C=C/C(=O)NCC(=O)N[C@H](C(=O)N[C@H](CCC(=O)OCC)C(=O)OCC)C(C)C)cc1OC [Compound 22, Diethyl ((E)-3-(4-(((4Z,7Z,10Z,13Z,16Z,19Z)-Docosa-4,7,10,13,16,19-hexaenoyl)oxy)-3-methoxyphenyl)acryloyl)glycyl-L-valyl-D-glutamate] | 200 ± 50.8 | 
19 | CCOC(=O)CC[C@@H](NC(=O)[C@@H](NC(=O)CNC(=O)/C=C/c1ccc(OC(=O)CCCCCCCCCCCCCO)c(OC)c1)C(C)C)C(=O)OCC [Compound 24, Diethyl ((E)-3-(4-((14-Hydroxytetradecanoyl)oxy)-3-methoxyphenyl)acryloyl)glycyl-L-valyl-D-glutamate] | 12.3 ± 1.5 | boost of NOD2 agonistic activity compared to 8 (EC50 ratio versus unsubstituted myristoylated 8): 6 fold
20 | CCOC(=O)[C@@H](CCC(=O)NCCCCN)NC(=O)[C@@H](NC(=O)CNC(=O)/C=C/c1ccc(O)c(OC)c1)C(C)C [Compound 30, Ethyl N^5-(4-Aminobutyl)-N^2-((E)-3-(4-hydroxy-3-methoxyphenyl)acryloyl)glycyl-L-valyl-D-glutaminate] | > 10000 | 
21 | CCOC(=O)[C@@H](CCC(=O)NCCCNCCCCN)NC(=O)[C@@H](NC(=O)CNC(=O)/C=C/c1ccc(O)c(OC)c1)C(C)C [Compound 34, Ethyl N^5-(3-((4-Aminobutyl)amino)propyl)-N^2-((E)-3-(4-hydroxy-3-methoxyphenyl)acryloyl)glycyl-L-valyl-D-glutaminate] | > 10000 | 
